Consider one compound from patent EP0063946A1, “Diagnosis of kidney function” (priority 1981, dated 1982).

Data set [1] is described as follows: Animal biodistribution and clearance studies in rats. The data set is classed as in vivo. The protocol: Samples for animal biodistribution studies were administered 1-2 hours post preparation.
Comparative data for Hippuran, Tc-99m TDG and Tc-99m DTPA in rats is set out in Table II.

The conditions of data set [2]: background statement; cited from earlier work.

`O=C(O)CNC(=O)c1ccccc1[131I]` [Hippuran, sodium iodohippurate]: the Clearance half time in data set [1] turned out to be 10.4 min. Further, in data set [1] (30 min p.i.), the “% in urine at 30 min p.i.” value is on record as 82.6%. In data set [1] (2 hour dissection), the “2 hour dissection (% injected dose) Bladder” value is 93.0 % injected dose, the “2 hour dissection (% injected dose) Intestine” value came out at 2.5 % injected dose, the “2 hour dissection (% injected dose) Kidney” value is 0.2 % injected dose and the “2 hour dissection (% injected dose) Liver” value was 0.2 % injected dose. For the same compound, in data set [2], the “removed from the blood in a single pass through the kidney” value is given as “About 80%”.
